{"source": "patent US20160000804A1", "about": "“INHIBITORS OF NA(V) 1.9 CHANNEL ACTIVITY AND USES THEREOF FOR TREATING PAIN” (UNIVERSITE D'AIX-MARSEILLE, priority 2013, published 2016)", "key": {"[1]": {"system": "arthritic mice", "experiment": "CFA induced chronic inflammation (monoarthritis), dynamic weight bearing", "type": "in vivo", "procedure": "Chronic inflammation (monoarthritis model) was induced under 2% isoflurane anesthesia by two subcutaneous injections of 15 μl around the tibio-tarsal joint of mice with complete Freund adjuvant (CFA), containing 5 μg/μl heat-killed Mycobacterium butyricum (Becton, Dickinson and cie). The animals' weight distribution on the four limbs was assessed using the dynamic weight bearing test (BioSeb). This new incapacitance test consists in a continuous measurement of all pressure points applied by a freely moving animal, allowing a quantitative evaluation of the weight imbalance caused by paw mechanical allodynia. Mice were placed in an 11×11×22 cm cage with a 44×44 sensor cells grid on the floor. The pressure applied on sensor cells by the animal's paws is recorded at a 10 Hz frequency over a 5 min period. Pressure and surface detection thresholds were determined automatically for each animal by the Dynamic weight bearing 1.3.2h software (Bioseb). After the manual attribution of each pressure point to the corresponding paw, the mean weight applied on each paw is calculated. Unilateral pain is finally evaluated trough the ipsi/contralateral hindpaws weight ratio, the weight applied on forepaws, and the percentage of time spent raising ipsilateral hindpaw."}, "[2]": {"system": "Nav1.9", "experiment": "Whole-cell voltage clamp recording of Nav1.9 activation curve in DRG neurons", "type": "cell-based", "settings": "for reversal of the inflammatory cocktail-induced shift of Nav1.9 activation curve: cholesterol supply in presence of inflammatory cocktail; for shift of Nav1.9 activation curve: substance alone versus control neuron, MβCD 20 mM, water soluble cholesterol 20 mM, cholesterol oxidase 4 U/ml, 15 min 37° C.", "procedure": "Dissociation of DRG neurons has been previously described (Coste et al., 2004; Coste et al., 2007). In brief, thoraco-lumbar DRG neurons were excised and incubated in enzyme solution containing 2 mg/ml of collagenase IA (Sigma) for 45 min at 37° C. before trituration in Hanks' medium (Life Technologies). Culture medium was Dulbecco's modified Eagle's medium (DMEM, Life Technologies) supplemented with 10% heat-inactivated fetal calf serum, 50 U/ml penicillin-streptomycin, 2 mML-glutamine, 25 mM glucose, 2 ng/ml glial-derived neurotrophic factor (GDNF) (all from Life Technologies), and 25 ng/ml nerve growth factor (NGF, Millipore). Cells were seeded on 35 mm cultures dishes (Nunc) coated with 2 mg/ml laminin (Sigma) and maintained in a humidified atmosphere (5% CO2, 37° C.) for 16-24 h before further cholesterol manipulations or electrophysiological recording.\nPatch pipettes had resistances of 3-3.5 MΩ for whole-cell voltage clamp recordings. Intracellular solution used in this study contained: 130 CsCl, 10 HEPES, 8 NaCl, 5 EGTA, 2.4 CaCl2, 1 MgCl2 (pH 7.3, 298 mOsm/l). […] Extracellular solution contained 500 nM tetrodotoxin (TTX) as well as 1 mM amiloride and 50 μM La^3+ in order to block Ca^2+ currents without altering NaN/Nav1.9 properties (Coste et al., 2007). […]. Extracellular media were exchanged using a gravity-fed bath perfusion system at a flow rate of 2-5 ml/min, while bath solution was removed by continuous suction. Recycling was used to reduce the amount of TTX used. Stock solutions of TTX (0.1 mM) and La^3+ (1M) were prepared in water. Stock solution of amiloride hydrochloride (1M) was made in dimethylsulfoxyde (final concentration, 0.1%).\nFor drugs application, DRG cultures were incubated for 15 min at 37° C. in DMEM containing freshly prepared MβCD (20 mM), water soluble cholesterol (20 mM), or cholesterol oxidase (4 U/ml). The inflammatory cocktail was incubated in extracellular solution for at least 20 min at room temperature (RT).\nData were acquired with an Axopatch 200B amplifier (Axon Instruments), filtered at 2 kHz, and digitally sampled at 20 kHz using PCLAMP 10 software. Currents were leak subtracted using a P/6 protocol. Voltage errors were minimized using 70-85% series resistance compensation. Whole-cell recording were begun 1 min after achieving the whole-cell configuration, to allow Cs^+ to equilibrate and to allow Nav1.9 channels to recover from slow inactivation. Conductance-voltage curves were calculated from the peak current according to the equation G=I/(V−Erev), where V is the test pulse potential and Erev the reversal potential calculated according to the Nernst equation. The activation curve (G-V) was fitted using the Boltzmann function: G/Gmax=1/(1+exp[(V1/2−V)/k]), where G/Gmax is the normalized conductance, V1/2 is the potential of half-maximum channel activation, and k is the steepness factor."}, "[3]": {"system": "arthritic mice", "experiment": "CFA chronic arthritis pain, transdermal gel, mechanical pain", "type": "in vivo", "settings": "gel application; cholesterol 28 mM or ibuprofen 5%", "procedure": "Chronic inflammation (monoarthritis model) was induced under 2% isoflurane anesthesia by two subcutaneous injections of 15 μl around the tibio-tarsal joint of mice with complete Freund adjuvant (CFA), containing 5 μg/μl heat-killed Mycobacterium butyricum (Becton, Dickinson and cie). Mechanical pain threshold was assessed using von Frey filaments (BioSeb) calibrated from 0.008 to 4.000 g. The filaments were applied five times each, in order of increasing forces, and pressed perpendicularly to the plantar surface of the hindpaw until they bent. The first filament which evoked at least 3/5 response was assigned as the pain threshold in grams."}, "[4]": {"system": "wild type and Nav1.9 KO mice", "experiment": "Von Frey test in non-inflamed animals", "type": "in vivo", "settings": "intraplantar injection, non-inflamed wild type and Nav1.9 KO mice", "procedure": "(§1) Methyl βcyclodextrin or α-cyclodextrin (both from sigma) were diluted in saline buffer prior to injection. Methyl βcyclodextrin/cholesterol complex (40 mg of cholesterol/g of complex) also called soluble cholesterol was purchased (from Sigma). Unless otherwise states, all cyclodextrin or cyclodextrin/cholesterol complexes were injected at a 40 mM concentration of cyclodextrin corresponding to 5.6 mM of cholesterol in the complex. Mechanical pain threshold was assessed using von Frey filaments (BioSeb) calibrated from 0.008 to 4.000 g. The filaments were applied five times each, in order of increasing forces, and pressed perpendicularly to the plantar surface of the hindpaw until they bent. The first filament which evoked at least 3/5 response was assigned as the pain threshold in grams."}, "[5]": {"system": "mice", "experiment": "Carrageenan model of persistent paw inflammation, von Frey test", "type": "in vivo", "procedure": "Persistent paw inflammation was induced by intraplantar injection of 20 μl of 2% λ-carrageenan (Sigma) in mice. Control animal received only vehicle saline solution (0.9% NaCl). 1 hr prior to carrageenan injection, animals received intra peritoneal injection of either saline or ibuprofen (75 mg/kg in saline solution). Mechanical pain threshold was assessed using von Frey filaments (BioSeb) calibrated from 0.008 to 4.000 g. The filaments were applied five times each, in order of increasing forces, and pressed perpendicularly to the plantar surface of the hindpaw until they bent. The first filament which evoked at least 3/5 response was assigned as the pain threshold in grams."}, "[6]": {"system": "wild type and Nav1.9 KO mice", "experiment": "Von Frey test after intraplantar injection of cyclodextrins (cholesterol depletion)", "type": "in vivo", "settings": "for mechanical allodynia / tactile hyperalgesia (von Frey filament test): intraplantar injection of 20 μl of a 40 mM solution", "procedure": "as §1"}, "[7]": {"settings": "periarticular injection, 20 μl of a 5.6 mM solution, versus saline"}}, "note": "“Also recorded” adds a separate entry of the source."}
{"compound": "CC(C)CCC[C@@H](C)[C@H]1CC[C@H]2[C@@H]3CC=C4C[C@@H](O)CC[C@]4(C)[C@H]3CC[C@]12C", "note": "[cholesterol]", "values": [{"measurement": "weight put on tail", "setting": "[1]; periarticular cholesterol injection versus saline injected mice", "value": "reduces the weight put on tail"}, {"measurement": "posture / behavioural parameters (dynamic weight bearing)", "setting": "[1]; [7]", "value": "improved all posture parameters examined; also recorded: improve behavioural parameter of arthritic mice"}, {"measurement": "weight borne by inflamed limbs", "setting": "[1]; [7]", "value": "bear more weight than limbs injected with saline solution"}, {"measurement": "reversal of the inflammatory cocktail-induced shift of Nav1.9 activation curve", "setting": "[2]", "value": "reverses this shift of activation"}, {"measurement": "reversal of the inflammatory cocktail-induced shift of Nav1.9 activation curve", "setting": "[2]; listed as Cholesterol", "value": "reverses the shift"}, {"measurement": "shift of Nav1.9 activation curve", "setting": "[2]", "value": "does not modify activation properties of Nav1.9"}, {"measurement": "chronic arthritis mechanical pain, transdermal delivery", "setting": "[3]", "value": "much efficient to treat arthritic inflammatory pain than a 5% ibuprofen gel"}, {"measurement": "mechanical threshold in physiological non-inflamed conditions", "setting": "[4]", "value": "without changing physiological mechanical threshold"}, {"measurement": "mechanical threshold in physiological non-inflamed conditions", "setting": "[4]; listed as Cholesterol", "value": "does not modify mechanical sensibility"}, {"measurement": "carrageenan induced mechanical allodynia, transdermal delivery", "setting": "[5]; gel with 5.6 mM cholesterol applied for 1.5 hrs, versus control gel", "value": "kills carragenin induced pain"}, {"measurement": "lambda-carrageenan-induced tactile hyperalgesia (von Frey)", "setting": "[5]; intraplantar injection of soluble cholesterol, 5, 6 mM of cholesterol", "value": "inhibits inflammatory evoked pain"}]}
{"compound": "CC(C)Cc1ccc(C(C)C(=O)O)cc1", "note": "(stereo not drawn) [ibuprofen]", "values": [{"measurement": "effect on methyl-beta-cyclodextrin-induced allodynia (mechanical threshold)", "setting": "[6]; intraperitoneal 75 mg/kg, wild type and Nav1.9 KO mice", "value": "does not modify methyl-beta-cyclodextrin-induced tactile hyperalgia; also recorded: does not reverse allodynic phenotype; also recorded: did not change mechanical threshold"}, {"measurement": "lambda-carrageenan-induced tactile hyperalgesia (von Frey)", "setting": "[5]; intraperitoneal injection (75 mg/kg, 1 hr prior to carrageenan)", "value": "reverse lambdα-carrageenan-induced tactile hyperalgesia"}]}
{"compound": "OC[C@H]1O[C@@H]2O[C@H]3[C@H](O)[C@@H](O)[C@@H](O[C@H]4[C@H](O)[C@@H](O)[C@@H](O[C@H]5[C@H](O)[C@@H](O)[C@@H](O[C@H]6[C@H](O)[C@@H](O)[C@@H](O[C@H]7[C@H](O)[C@@H](O)[C@@H](O[C@H]1[C@H](O)[C@H]2O)O[C@@H]7CO)O[C@@H]6CO)O[C@@H]5CO)O[C@@H]4CO)O[C@@H]3CO", "note": "[α-CD, α-cyclodextrin]", "values": [{"measurement": "mechanical allodynia / tactile hyperalgesia (von Frey filament test)", "setting": "[6]; Nav1.9 KO mice", "value": "did not induce mechanical allodynia"}, {"measurement": "mechanical allodynia / tactile hyperalgesia (von Frey filament test)", "setting": "[6]; wild type mice", "value": "did not induce mechanical allodynia"}, {"measurement": "mechanical allodynia / tactile hyperalgesia (von Frey filament test)", "setting": "[6]; wild type mice, listed as Alphα-cyclodextrin", "value": "does not induce tactile hyperalgia"}]}
{"compound": "cholesterol oxidase", "values": [{"measurement": "shift of Nav1.9 activation curve", "setting": "[2]", "value": "induces the same shift as inflammatory cocktail; also recorded: shift Nav1.9 activation curves to hyperpolarised potential"}]}
{"compound": "methyl-beta-cyclodextrin [MBCD]", "values": [{"measurement": "shift of Nav1.9 activation curve", "setting": "[2]", "value": "shift Nav1.9 activation curves to hyperpolarised potential"}, {"measurement": "shift of Nav1.9 activation curve", "setting": "[2]; listed as MβCD", "value": "induces the same shift as inflammatory cocktail"}, {"measurement": "mechanical allodynia / tactile hyperalgesia (von Frey filament test)", "setting": "[6]; Nav1.9 KO mice", "value": "markedly reduced"}, {"measurement": "mechanical allodynia / tactile hyperalgesia (von Frey filament test)", "setting": "[6]; wild type mice", "value": "induces a strong mechanical allodynia"}]}
